Columns and labels:
[1] = randomised, double-blind, parallel-group clinical trial, 8 weeks; HAM-D and MADRS items of suicidal thoughts; format: in vivo; settings: escitalopram daily dose of 10-20 mg compared with 40 mg citalopram; persons with major depression
Protocol: In brief, a clinical trial was designed as a randomised, double-blind, parallel-group trial comprising two different fixed escitalopram doses (10 mg and 20 mg per day) for eight weeks. A placebo-arm was included, as was an active comparator arm in terms of 40 mg citalopram per day. The persons fulfilled the following criteria: (a) DSM-IV (i) major depression with symptoms present for a minimum of 4 weeks; (b) minimum total score of 22 on the 10-item MADRS (Montgomery SA, Åsberg M., A new depression scale designed to be sensitive to change., Br. J. Psychiatry 1979, 134, 382-389) and a score of 2 or more on the HAM-D item (depressed mood) (Hamilton, M., Br. J. Soc. Clin. Psychol 1967, 6, 278-296). Persons who still fulfilled the MADRS and HAM-D criteria after 1-week, single-blind placebo lead-in were randomised to the double-blind treatment. Throughout the 8-week double-blind treatment period, persons assigned to placebo or escitalopram 10 mg daily received no adjustment of dosage. Persons in the escitalopram 20 mg daily group and in the citalopram group were titrated to their final dose of after 1 week of treatment at half of their assigned dose. […] Persons were evaluated at baseline (the end of the 1-week placebo lead-in) and after 1, 2, 4, 6, and 8 weeks. […]

[2] = analysis of data from four clinical studies; suicidal thoughts (MADRS item 10); format: in vivo, patients

For `CN(C)CCC[C@@]1(c2ccc(F)cc2)OCc2cc(C#N)ccc21` [escitalopram], the reducing suicidal thoughts [1] was “more effective”, the “overall effect on suicidal thoughts or suicidal ideation” value ([2]; after one week of treatment with 10-20 mg escitalopram compared to placebo) was “significantly pronounced already after one week” and the “percentage of patients experiencing an increase in suicidal thoughts” value ([2]; after one week of treatment, compared to patients treated with citalopram or placebo) was “significantly lower”. For the same molecule, the “treatment of the group of patients having a score greater than or equal to 2 on item 10 on the MADRS depression scale” value ([2]; compared to citalopram, results of four clinical studies) was “more much more effective” and the “alleviation of suicidal ideation” value ([2]; general statement of the finding) was “early alleviation of suicidal ideation”.
